Assay results reported in publication PMC8619046, “ABCB1 and ABCG2 Control Brain Accumulation and Intestinal Disposition of the Novel ROS1/TRK/ALK Inhibitor Repotrectinib, While OATP1A/1B, ABCG2, and CYP3A Limit Its Oral Availability” (Pharmaceutics, 2021).
Several values for one entry are separate records, joined by “and”; a condition that tells them apart may be missing. Equal entries are not always repeated. Where two headings read alike, the source gives them in different places.

Key:
[1] = Oral plasma pharmacokinetics compared across experiments and mouse strains; assay type: in vivo, mice
Source text: (§1) Mice with similar average ages (and body weights) were randomly allocated in experimental groups as far as possible. Mice were maintained in a temperature-controlled and specific pathogen-free environment with a 12-h light and 12-h dark cycle and they received a standard diet (Transbreed, SDS Diets, Technilab-BMI, Someren, The Netherlands) and acidified water ad libitum. […] Given the objective main readout (repotrectinib plasma and tissue concentrations as measured by LC-MS/MS), no blinding method was applied.
Repotrectinib was dissolved in dimethyl sulfoxide (DMSO) at a concentration of 50 mg/mL. […]
(§2) A sensitive and specific liquid chromatography-tandem mass spectrometry method using protein precipitation pre-treatment was adopted to quantify the concentration of repotrectinib in DMEM medium, plasma samples and tissue homogenates.
A non-compartmental model using the PKSolver add-in program for Microsoft Excel was adopted to calculate the pharmacokinetic parameters of repotrectinib. Oral availability was assessed by the plasma area under the curve (AUC), calculated using repotrectinib plasma concentration-time curves with the linear trapezoidal rule without extrapolating the infinity. […]

[2] = Toxicity signs observed in mice after oral repotrectinib; assay type: in vivo; details: 10 mg/kg oral
Source text: as §1
(§3) To minimize variation in absorption upon oral administration, mice were fasted for 2–3 h before repotrectinib (10 mg/kg body weight) was administered by gavage into the stomach at 10 µL/g body weight, with a blunt-ended needle. Tail vein serial blood samples were collected at 0.125, 0.25, 0.5, 1, 2 and 4 h using heparinized capillary tubes (Sarstedt, Nümbrecht, Germany) for the 8-h experiments. For the 4- and 2-h experiments, blood samplings were performed from the tail vein with the same schedule, but terminated at 2 and 1 h, respectively. Eight, four, or two hours after oral administration, mice were deeply anesthetized with 2–3% isoflurane, followed by cardiac puncture to collect blood in Eppendorf tubes containing heparin as an anticoagulant. Brain, liver, spleen, kidney, lung, small intestine, and testis were rapidly collected after sacrificing the mice by cervical dislocation. The small intestinal contents (SIC) were separated from small intestinal tissue (SI), which was flushed and rinsed with cold saline to remove any residual feces. Brain, liver, spleen, kidney, lung, SI, SIC, and testis were homogenized with 1, 3, 1, 2, 1, 3, 2, and 1 mL of 2% BSA (w/v), respectively. Plasma fraction was isolated from blood by centrifugation at 9000× g for 6 min at 4 °C. All samples were stored at −30 °C until analysis.

[3] = 8-h oral plasma pharmacokinetics and tissue distribution, female wild-type, Cyp3a−/− and Cyp3aXAV mice; assay type: in vivo; details: 10 mg/kg oral; for Tmax: median (range); for Tmax / SIC (% of dose) / Fold change AUC0–8h / Fold change SIC (% of dose) / Fold increase Cbrain / Fold increase Cliver / Fold increase ratio (brain-to-plasma) / Fold increase ratio (liver-to-plasma) / Kp at 8 h / concentration at 8 h / half-life / Cmax / AUC(0-t): 8 h; for Fold change AUC0–8h / Fold change SIC (% of dose) / Fold increase Cbrain / Fold increase Cliver / Fold increase ratio (brain-to-plasma) / Fold increase ratio (liver-to-plasma): vs wild-type; for Kp at 8 h / concentration at 8 h / half-life / Cmax / AUC(0-t): female, po; for half-life: elimination half-life; for AUC(0-t): read-out: AUC0–8h
Source text: as §1
Repotrectinib was dissolved in dimethyl sulfoxide (DMSO) at a concentration of 50 mg/mL. This stock solution was first diluted 3-fold with ethanol/polysorbate 80 (1/1; v/v), followed by further dilution with a 10 mM hydrochloric acid solution, yielding a dosing solution of 1 mg/mL, freshly prepared on the day of experiment. Final concentrations of the solvents in the administration solution were: 2%, 2%, 2%, and 94% (all v/v) for DMSO, ethanol, polysorbate 80, and 10 mM hydrochloric acid solution, respectively.
as §3, §2
A non-compartmental model using the PKSolver add-in program for Microsoft Excel was adopted to calculate the pharmacokinetic parameters of repotrectinib. Oral availability was assessed by the plasma area under the curve (AUC), calculated using repotrectinib plasma concentration-time curves with the linear trapezoidal rule without extrapolating the infinity. Statistical testing was performed in Graphpad Prism7 (Graphpad Software, La Jolla, CA, USA). All data are presented as geometric means ± SD. Heteroscedastic data were log-transformed before applying statistical analysis. When differences between two groups were compared, the two-sided unpaired Student’s t test was used. One-way analysis of variance (ANOVA) was applied when multiple groups were compared, and the Bonferroni post hoc correction was used to accommodate multiple testing. Differences were considered statistically significant when P < 0.05.

[4] = FVB, mouse, plasma, 10 mg/kg, female Cyp3aXAV mice
[5] = FVB, mouse, plasma, 10 mg/kg, female Cyp3a−/− mice
[6] = FVB, mouse, plasma, 10 mg/kg, female wild-type mice

Compound: C[C@H]1CNC(=O)c2cnn3ccc(nc23)N[C@H](C)c2cc(F)ccc2O1 [repotrectinib]
- Tmax ([1]; plasma, 10 mg/kg, all tested mouse strains, oral administration): ~0.5 h
- plasma levels, female relative to male mice ([1]; same oral dose 10 mg/kg, Figure 3 vs Figure S1): about 1.6 fold
- toxicity signs ([2]; Cyp3a−/− and Oatp1a/1b−/− mice): no noticeable signs of toxicity
- time at which signs of toxicity disappeared ([2]; female Abcb1a/1b;Abcg2−/− mice): around 4 h
- time of toxicity signs after oral administration ([2]; female Abcb1a/1b;Abcg2−/− mice): 1 to 2 h
- toxicity signs ([2]; female Abcb1a/1b;Abcg2−/− mice, hypoactivity and continuously closed eyes): mild toxicity signs
- toxicity signs ([2]; female wild-type mice): no noticeable toxicity symptoms
- Tmax ([3]; FVB, mouse, plasma, female wild-type mice, read-out: Tmax): 0.5 h
- plasma AUC0–8h, fold decrease ([3]; female Cyp3aXAV mice compared to Cyp3a−/− mice): 2.0 fold
- SIC (% of dose) ([3]; female Cyp3aXAV mice): 1.68 ± 0.63 % of dose
- Fold change AUC0–8h ([3]; female Cyp3aXAV mice): 1.16
- Fold change SIC (% of dose) ([3]; female Cyp3aXAV mice): 0.81
- Fold increase Cbrain ([3]; female Cyp3aXAV mice): 1.57
- Fold increase Cliver ([3]; female Cyp3aXAV mice): 1.13
- Fold increase ratio (brain-to-plasma) ([3]; female Cyp3aXAV mice): 1.54
- Fold increase ratio (liver-to-plasma) ([3]; female Cyp3aXAV mice): 1.32
- SIC (% of dose) ([3]; female Cyp3a−/− mice): 5.11 ± 2.83 % of dose
- Fold change SIC (% of dose) ([3]; female Cyp3a−/− mice): 2.46
- Fold increase Cbrain ([3]; female Cyp3a−/− mice): 4.16
- Fold increase Cliver ([3]; female Cyp3a−/− mice): 4.11
- Fold increase ratio (brain-to-plasma) ([3]; female Cyp3a−/− mice): 0.85
- Fold increase ratio (liver-to-plasma) ([3]; female Cyp3a−/− mice): 0.90
- Fold change AUC0–8h ([3]; female Cyp3a−/− mice, 10 mg/kg): 2.3 and 2.31
- SIC (% of dose) ([3]; female wild-type mice): 2.08 ± 1.35 % of dose
- Fold change AUC0–8h ([3]; female wild-type mice): 1.00
- Fold change SIC (% of dose) ([3]; female wild-type mice): 1.00
- Fold increase Cbrain ([3]; female wild-type mice): 1.00
- Fold increase Cliver ([3]; female wild-type mice): 1.00
- Fold increase ratio (brain-to-plasma) ([3]; female wild-type mice): 1.00
- Fold increase ratio (liver-to-plasma) ([3]; female wild-type mice): 1.00
- Kp at 8 h ([3]; Cyp3aXAV (>99% FVB background), mouse, brain/plasma, 10 mg/kg, female Cyp3aXAV mice, read-out: Brain-to-plasma ratio): 0.4 ± 0.09
- concentration at 8 h ([3]; Cyp3aXAV (>99% FVB background), mouse, liver, 10 mg/kg, female Cyp3aXAV mice, read-out: Cliver): 1380 ± 440 ng/mL
- Kp at 8 h ([3]; Cyp3a−/− (>99% FVB background), mouse, brain/plasma, 10 mg/kg, female Cyp3a−/− mice, read-out: Brain-to-plasma ratio): 0.22 ± 0.08
- concentration at 8 h ([3]; Cyp3a−/− (>99% FVB background), mouse, liver, 10 mg/kg, female Cyp3a−/− mice, read-out: Cliver): 5020 ± 1920 ng/mL
- concentration at 8 h ([3]; FVB, mouse, brain, 10 mg/kg, female Cyp3aXAV mice, read-out: Cbrain): 80.2 ± 35.3 ng/g
- concentration at 8 h ([3]; FVB, mouse, brain, 10 mg/kg, female Cyp3a−/− mice, read-out: Cbrain): 213 ± 53.7 ng/g
- concentration at 8 h ([3]; FVB, mouse, brain, 10 mg/kg, female wild-type mice, read-out: Cbrain): 51.2 ± 17.8 ng/g
- Kp at 8 h ([3]; FVB, mouse, liver, 10 mg/kg, female Cyp3aXAV mice, read-out: Liver-to-plasma ratio): 7.1 ± 2.11
- Kp at 8 h ([3]; FVB, mouse, liver, 10 mg/kg, female Cyp3a−/− mice, read-out: Liver-to-plasma ratio): 4.81 ± 0.76
- Kp at 8 h ([3]; FVB, mouse, liver, 10 mg/kg, female wild-type mice, read-out: Liver-to-plasma ratio): 5.36 ± 0.54
- half-life [3, 4]: 1.6 ± 0.2 h
- half-life [3, 5]: 2.5 ± 0.9 h
- half-life [3, 6]: 1.6 ± 0.4 h
- Cmax [3, 4]: 5560 ± 610 ng/mL
- AUC(0-t) [3, 4]: 18900 ± 3650 ng·h/mL
- Cmax [3, 5]: 8280 ± 930 ng/mL
- AUC(0-t) [3, 5]: 37600 ± 2830 ng·h/mL
- Cmax [3, 6]: 4800 ± 1780 ng/mL
- AUC(0-t) [3, 6]: 16300 ± 6350 ng·h/mL
- Kp at 8 h ([3]; wild-type (>99% FVB background), mouse, brain/plasma, 10 mg/kg, female wild-type mice, read-out: Brain-to-plasma ratio): 0.26 ± 0.12
- concentration at 8 h ([3]; wild-type (>99% FVB background), mouse, liver, 10 mg/kg, female wild-type mice, read-out: Cliver): 1220 ± 650 ng/mL
- Tmax ([3]; female Cyp3aXAV mice): 0.5 (0.25–0.5) h
- Tmax ([3]; female Cyp3a−/− mice): 0.5 (0.125–0.5) h
